{
  "source": "the NIST ThermoML archive (doi:10.1016/j.jct.2005.08.018)",
  "key": {"[1]": {"conditions": "298.15 K; 101 kPa; Liquid"}, "[2]": {"test": "mn = molality of the nth substance listed, in mol/kg", "conditions": "298.15 K, 101 kPa, Liquid"}},
  "note": "± gives the expanded uncertainty stated by the source.",
  "data": [
    {"molecule": "c1ccccc1", "note": "[benzene]", "values": [
      {"measurement": "mass density", "setting": "[1]", "value": "873.71 ± 0.78", "unit": "kg/m3"},
      {"measurement": "speed of sound", "setting": "[1]", "value": "1298.2 ± 2.8", "unit": "m/s"}
    ]},
    {"molecule": "c1ccccc1", "note": "[benzene] + CCCC[N+](CCCC)(CCCC)CCCC.[Br-]", "values": [
      {"measurement": "mass density", "setting": "[2]; m2 = 0", "value": "873.71 ± 0.78", "unit": "kg/m3"},
      {"measurement": "speed of sound", "setting": "[2]; m2 = 0", "value": "1298.2 ± 2.8", "unit": "m/s"}
    ]},
    {"molecule": "CCCC[N+](CCCC)(CCCC)CCCC.[Br-]", "note": "[tetrabutylammonium bromide] + c1ccccc1", "values": [
      {"measurement": "mass density", "setting": "[2]; m1 = 0.0154", "value": "874.64 ± 0.78", "unit": "kg/m3"},
      {"measurement": "speed of sound", "setting": "[2]; m1 = 0.0154", "value": "1298.6 ± 2.8", "unit": "m/s"},
      {"measurement": "mass density", "setting": "[2]; m1 = 0.0485", "value": "876.48 ± 0.78", "unit": "kg/m3"},
      {"measurement": "speed of sound", "setting": "[2]; m1 = 0.0485", "value": "1299.4 ± 2.8", "unit": "m/s"},
      {"measurement": "mass density", "setting": "[2]; m1 = 0.0662", "value": "877.4 ± 0.77", "unit": "kg/m3"},
      {"measurement": "speed of sound", "setting": "[2]; m1 = 0.0662", "value": "1300.6 ± 2.8", "unit": "m/s"},
      {"measurement": "mass density", "setting": "[2]; m1 = 0.0827", "value": "878.36 ± 0.77", "unit": "kg/m3"},
      {"measurement": "speed of sound", "setting": "[2]; m1 = 0.0827", "value": "1300.8 ± 2.8", "unit": "m/s"},
      {"measurement": "mass density", "setting": "[2]; m1 = 0.1724", "value": "883.19 ± 0.76", "unit": "kg/m3"},
      {"measurement": "speed of sound", "setting": "[2]; m1 = 0.1724", "value": "1301.4 ± 2.8", "unit": "m/s"},
      {"measurement": "mass density", "setting": "[2]; m1 = 0.3622", "value": "893.1 ± 0.74", "unit": "kg/m3"},
      {"measurement": "speed of sound", "setting": "[2]; m1 = 0.3622", "value": "1310.1 ± 2.8", "unit": "m/s"},
      {"measurement": "mass density", "setting": "[2]; m1 = 0.5773", "value": "903.19 ± 0.72", "unit": "kg/m3"},
      {"measurement": "speed of sound", "setting": "[2]; m1 = 0.5773", "value": "1316.4 ± 2.8", "unit": "m/s"},
      {"measurement": "mass density", "setting": "[2]; m1 = 0.8062", "value": "913.08 ± 0.7", "unit": "kg/m3"},
      {"measurement": "speed of sound", "setting": "[2]; m1 = 0.8062", "value": "1324.6 ± 2.9", "unit": "m/s"}
    ]},
    {"molecule": "ClC(Cl)(Cl)Cl", "note": "[tetrachloromethane]", "values": [
      {"measurement": "mass density", "setting": "[1]", "value": "1584.35 ± 2.2", "unit": "kg/m3"},
      {"measurement": "speed of sound", "setting": "[1]", "value": "921.7 ± 2.4", "unit": "m/s"}
    ]},
    {"molecule": "ClC(Cl)(Cl)Cl", "note": "[tetrachloromethane] + CCCC[N+](CCCC)(CCCC)CCCC.[Br-]", "values": [
      {"measurement": "mass density", "setting": "[2]; m2 = 0", "value": "1584.35 ± 2.2", "unit": "kg/m3"},
      {"measurement": "speed of sound", "setting": "[2]; m2 = 0", "value": "921.7 ± 2.4", "unit": "m/s"},
      {"measurement": "mass density", "setting": "[2]; m2 = 0.0289", "value": "1578.53 ± 2.2", "unit": "kg/m3"},
      {"measurement": "speed of sound", "setting": "[2]; m2 = 0.0289", "value": "926.4 ± 2.4", "unit": "m/s"},
      {"measurement": "mass density", "setting": "[2]; m2 = 0.0459", "value": "1575.17 ± 2.2", "unit": "kg/m3"},
      {"measurement": "speed of sound", "setting": "[2]; m2 = 0.0459", "value": "929.4 ± 2.4", "unit": "m/s"},
      {"measurement": "mass density", "setting": "[2]; m2 = 0.0609", "value": "1572.21 ± 2.2", "unit": "kg/m3"},
      {"measurement": "speed of sound", "setting": "[2]; m2 = 0.0609", "value": "931.7 ± 2.4", "unit": "m/s"},
      {"measurement": "mass density", "setting": "[2]; m2 = 0.0759", "value": "1569.3 ± 2.2", "unit": "kg/m3"},
      {"measurement": "speed of sound", "setting": "[2]; m2 = 0.0759", "value": "933.7 ± 2.4", "unit": "m/s"},
      {"measurement": "mass density", "setting": "[2]; m2 = 0.1041", "value": "1563.88 ± 2.2", "unit": "kg/m3"},
      {"measurement": "speed of sound", "setting": "[2]; m2 = 0.1041", "value": "939.5 ± 2.4", "unit": "m/s"},
      {"measurement": "mass density", "setting": "[2]; m2 = 0.3475", "value": "1520.79 ± 2", "unit": "kg/m3"},
      {"measurement": "speed of sound", "setting": "[2]; m2 = 0.3475", "value": "982 ± 2.4", "unit": "m/s"},
      {"measurement": "mass density", "setting": "[2]; m2 = 0.5626", "value": "1488.36 ± 1.9", "unit": "kg/m3"},
      {"measurement": "speed of sound", "setting": "[2]; m2 = 0.5626", "value": "1017.5 ± 2.5", "unit": "m/s"},
      {"measurement": "mass density", "setting": "[2]; m2 = 0.8165", "value": "1456.84 ± 1.8", "unit": "kg/m3"},
      {"measurement": "speed of sound", "setting": "[2]; m2 = 0.8165", "value": "1057.6 ± 2.5", "unit": "m/s"}
    ]}
  ]
}
